Measurements taken from US9796716B2, “Selective inhibitors of Tec and Src protein kinase families” (Pharmascience, Inc., priority 2012, dated 2017).

Tests used:
[1] = test system: Splenocytes (B cell proliferation stimulated with anti-IgM F(ab′)2); assay: Splenic Cell Proliferation Assay; type: cell-based; settings: Mus musculus, Splenocyte, 72 h, CD1 mouse splenocytes, 2.5 ug/ml anti-IgM F(ab′)2 for 72 h, Cell Titer-Glo; read-out: EC50 (nM), Inhibition of splenic cell proliferation
Description: Splenic Cell Proliferation Assay
Splenocytes were obtained from 6 week old male CD1 mice (Charles River Laboratories Inc.). Mouse spleens were manually disrupted in PBS and filtered using a 70 um cell strainer followed by ammonium chloride red blood cell lysis. Cells were washed, resuspended in Splenocyte Medium (HyClone RPMI supplemented with 10% heat-inactivated FBS, 0.5× non-essential amino acids, 10 mM HEPES, 50 uM beta mercaptoethanol) and incubated at 37° C., 5% CO2 for 2 h to remove adherent cells. Suspension cells were seeded in 96 well plates at 50,000 cells per well and incubated at 37° C., 5% CO2 for 1 h. Splenocytes were pre-treated in triplicate with 10,000 nM curves of Formula 1 compounds for 1 h, followed by stimulation of B cell proliferation with 2.5 ug/ml anti-IgM F(ab′)2 (Jackson ImmunoResearch) for 72 h. Cell proliferation was measured by Cell Titer-Glo Luminescent Assay (Promega). EC50 values (50% proliferation in the presence of compound as compared to vehicle treated controls) were calculated from dose response compound curves using GraphPad Prism Software.

[2] = molecular target: recombinant human full-length Bruton Agammaglobulinemia Tyrosine Kinase (Btk) (Homo sapiens (Human), UniProt Q06187); assay: Btk Kinase Inhibition Assay (fluorescence polarization); type: biochemical; settings: 10 μM ATP, 250 μM substrate, 60 minutes; Ki calculated from IC50 using the Cheng-Prusoff equation
Description: Kinase Binding Btk Kinase Inhibition Assay
Fluorescence polarization-based kinase assays were performed in 384 well-plate format using histidine tagged recombinant human full-length Bruton Agammaglobulinemia Tyrosine Kinase (Btk) and a modified protocol of the KinEASE™ FP Fluorescein Green Assay supplied from Millipore. Kinase reaction were performed at room temperature for 60 minutes in presence of 250 μM substrate, 10 μM ATP and variable test article concentrations. The reaction was stopped with EDTA/kinase detection reagents and the polarization measured on a Tecan 500 instrument. From the dose-response curve obtained, the IC50 was calculated using Graph Pad Prisms® using a non linear fit curve. The Km for ATP on each enzyme was experimentally determined and the Ki values calculated using the Cheng-Prusoff equation (see: Cheng Y, Prusoff W H. (1973) Relationship between the inhibition constant (K1) and the concentration of inhibitor which causes 50 percent inhibition (I50) of an enzymatic reaction”. Biochem Pharmacol 22 (23): 3099-108).

recombinant human full-length Bruton Agammaglobulinemia Tyrosine Kinase (Btk), sequence (Q06187 whole entry): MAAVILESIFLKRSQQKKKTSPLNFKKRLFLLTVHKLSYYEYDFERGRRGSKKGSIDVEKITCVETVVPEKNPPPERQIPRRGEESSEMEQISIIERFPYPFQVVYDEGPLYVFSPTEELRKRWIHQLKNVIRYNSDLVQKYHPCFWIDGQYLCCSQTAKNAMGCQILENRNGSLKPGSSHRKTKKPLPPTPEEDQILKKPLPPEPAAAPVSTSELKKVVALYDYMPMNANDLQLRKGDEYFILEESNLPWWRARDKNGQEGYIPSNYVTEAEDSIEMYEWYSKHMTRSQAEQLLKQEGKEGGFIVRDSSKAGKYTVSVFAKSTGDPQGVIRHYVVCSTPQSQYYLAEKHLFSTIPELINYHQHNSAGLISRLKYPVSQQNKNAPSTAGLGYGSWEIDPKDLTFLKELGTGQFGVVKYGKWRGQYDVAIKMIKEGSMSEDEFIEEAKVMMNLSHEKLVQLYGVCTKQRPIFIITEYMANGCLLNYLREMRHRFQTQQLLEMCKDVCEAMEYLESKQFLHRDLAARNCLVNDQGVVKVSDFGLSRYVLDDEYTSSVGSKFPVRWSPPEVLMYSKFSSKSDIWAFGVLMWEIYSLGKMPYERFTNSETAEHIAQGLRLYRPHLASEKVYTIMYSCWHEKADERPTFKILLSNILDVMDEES

SMILES: Cc1ncc(COc2cc(F)cc(Oc3ccc(-c4nn(C5CCOCC5)c5ncnc(N)c45)c(F)c3)c2)s1 [Compound 60]
- EC50 [1]: < 100 nM
- Ki [2]: < 100 nM

SMILES: Cc1ncc(COc2cc(F)cc(Oc3ccc(-c4nn(C)c5ncnc(N)c45)cc3)c2)s1 [Compound 61]
- EC50 [1]: 100 to 1000 nM
- Ki [2]: < 100 nM

SMILES: Nc1ncnc2c1c(-c1ccc(Oc3cc(F)cc(OCc4ccccc4)c3)cc1)nn2C1CCOCC1 [Compound 63]
- EC50 [1]: < 100 nM
- Ki [2]: < 100 nM

SMILES: [2H]C([2H])(Oc1cc(F)cc(Oc2ccc(-c3nn(C4CCOCC4)c4ncnc(N)c34)cc2)c1)c1cnc(C)s1 [Compound 64]
- EC50 [1]: < 100 nM
- Ki [2]: < 100 nM

SMILES: Cc1ccc(COc2cc(F)cc(Oc3ccc(-c4nn(C5CCOCC5)c5ncnc(N)c45)cc3)c2)cn1 [Compound 65]
- EC50 [1]: < 100 nM
- Ki [2]: < 100 nM

SMILES: Nc1ncnc2c1c(-c1ccc(Oc3cc(F)cc(CCc4ccccc4)c3)cc1)nn2C1CCOCC1 [Compound 66]
- EC50 [1]: 100 to 1000 nM
- Ki [2]: < 100 nM

SMILES: Cn1cncc1CCc1cc(F)cc(Oc2ccc(-c3nn(C4CCOCC4)c4ncnc(N)c34)cc2)c1 [Compound 67]
- EC50 [1]: 100 to 1000 nM
- Ki [2]: < 100 nM

SMILES: Nc1ncnc2c1c(-c1ccc(Oc3cc(F)cc(OCc4cncnc4)c3)cc1)nn2C1CCOCC1 [Compound 68]
- EC50 [1]: < 100 nM
- Ki [2]: < 100 nM

SMILES: Nc1ncnc2c1c(-c1ccc(Oc3cc(F)cc(OCc4cnccn4)c3)cc1)nn2C1CCOCC1 [Compound 69]
- EC50 [1]: < 100 nM
- Ki [2]: < 100 nM

SMILES: Cc1ncc(COc2cccc(Oc3ccc(-c4nn(C5CCOCC5)c5ncnc(N)c45)c(F)c3)c2)s1 [Compound 70]
- EC50 [1]: < 100 nM
- Ki [2]: < 100 nM

SMILES: Cn1cncc1COc1cc(F)cc(Oc2ccc(-c3nn(C4CCOCC4)c4ncnc(N)c34)cc2F)c1 [Compound 72]
- EC50 [1]: 100 to 1000 nM
- Ki [2]: < 100 nM

SMILES: Cn1cncc1COc1cc(F)cc(Oc2ccc(-c3nn(C4CCOCC4)c4ncnc(N)c34)c(F)c2)c1 [Compound 73]
- EC50 [1]: < 100 nM
- Ki [2]: < 100 nM

SMILES: CC(C)Cn1cncc1COc1cc(F)cc(Oc2ccc(-c3nn(C4CCOCC4)c4ncnc(N)c34)cc2)c1 [Compound 74]
- EC50 [1]: 100 to 1000 nM
- Ki [2]: < 100 nM

SMILES: [2H]C([2H])(Oc1cc(F)cc(Oc2ccc(-c3nn(C4CCOCC4)c4ncnc(N)c34)cc2)c1)c1cncn1C [Compound 75]
- EC50 [1]: < 100 nM
- Ki [2]: < 100 nM

SMILES: Nc1ncnc2c1c(-c1ccc(Oc3cc(F)cc(OCc4cncn4Cc4ccccc4)c3)cc1)nn2C1CCOCC1 [Compound 76]
- EC50 [1]: 100 to 1000 nM
- Ki [2]: < 100 nM

SMILES: Nc1ncnc2c1c(-c1ccc(Oc3cc(F)cc(OCc4cncn4C4CCCC4)c3)cc1)nn2C1CCOCC1 [Compound 77]
- EC50 [1]: < 100 nM
- Ki [2]: < 100 nM

SMILES: Nc1ncnc2c1c(-c1ccc(Oc3cc(F)cc(CCc4cccnc4)c3)cc1)nn2C1CCOCC1 [Compound 80]
- EC50 [1]: 100 to 1000 nM
- Ki [2]: < 100 nM

SMILES: Cc1ncc(COc2cc(F)cc(Oc3ccc(-c4nn(CCO)c5ncnc(N)c45)cc3)c2)s1 [Compound 81]
- EC50 [1]: < 100 nM
- Ki [2]: < 100 nM

SMILES: COCCn1cncc1COc1cc(F)cc(Oc2ccc(-c3nn(C4CCOCC4)c4ncnc(N)c34)cc2)c1 [Compound 83]
- EC50 [1]: 100 to 1000 nM
- Ki [2]: < 100 nM

SMILES: Cc1ccc(COc2cc(F)cc(Oc3ccc(-c4nn(C5CCCC5)c5ncnc(N)c45)cc3)c2)cn1 [Compound 84]
- EC50 [1]: < 100 nM
- Ki [2]: < 100 nM

SMILES: Nc1ncnc2c1c(-c1ccc(Oc3cc(F)cc(CCc4ccccn4)c3)cc1)nn2C1CCOCC1 [Compound 86]
- EC50 [1]: 100 to 1000 nM
- Ki [2]: < 100 nM

SMILES: CCn1cncc1COc1cc(F)cc(Oc2ccc(-c3nn(C4CCOCC4)c4ncnc(N)c34)cc2)c1 [Compound 87]
- EC50 [1]: < 100 nM
- Ki [2]: < 100 nM

SMILES: Cc1ccc(COc2cc(F)cc(Oc3ccc(-c4nn(CCO)c5ncnc(N)c45)cc3)c2)cn1 [Compound 88]
- EC50 [1]: < 100 nM
- Ki [2]: < 100 nM

SMILES: Cc1ccc(COc2cc(F)cc(Oc3ccc(-c4nn(C5CCOCC5)c5ncnc(N)c45)cc3)c2)c[n+]1[O-] [Compound 91]
- EC50 [1]: < 100 nM
- Ki [2]: < 100 nM

SMILES: Cn1cncc1COc1cc(F)cc(Oc2ccc(-c3nn(C4CCCC4)c4ncnc(N)c34)c(F)c2)c1 [Compound 92]
- EC50 [1]: < 100 nM
- Ki [2]: < 100 nM

SMILES: Nc1ncnc2c1c(-c1ccc(Oc3cc(F)cc(OCc4cnc[nH]4)c3)cc1)nn2C1CCOCC1 [Compound 93]
- EC50 [1]: 100 to 1000 nM
- Ki [2]: < 100 nM

SMILES: Cc1ccc(COc2cc(F)cc(Oc3ccc(-c4nn(C5CCOCC5)c5ncnc(N)c45)c(F)c3)c2)cn1 [Compound 95]
- EC50 [1]: < 100 nM
- Ki [2]: < 100 nM

SMILES: Cc1ccc(COc2cc(F)cc(Oc3ccc(-c4nn(CCCO)c5ncnc(N)c45)cc3)c2)cn1 [Compound 96]
- EC50 [1]: < 100 nM
- Ki [2]: < 100 nM

SMILES: Nc1ncnc2c1c(-c1ccc(Oc3cc(F)cc(OCc4cncn4CCOCc4ccccc4)c3)cc1)nn2C1CCOCC1 [Compound 97]
- EC50 [1]: 100 to 1000 nM
- Ki [2]: < 100 nM

SMILES: CC(C)n1nc(-c2ccc(Oc3cc(F)cc(OCc4cncn4C)c3)cc2F)c2c(N)ncnc21 [Compound 98]
- EC50 [1]: < 100 nM
- Ki [2]: < 100 nM

SMILES: Nc1ncnc2c1c(-c1ccc(Oc3cc(F)cc(OCc4cncn4CCO)c3)cc1)nn2C1CCOCC1 [Compound 99]
- EC50 [1]: 100 to 1000 nM
- Ki [2]: < 100 nM

SMILES: Nc1ncnc2c1c(-c1ccc(Oc3cc(F)cc(OCc4ccc(CO)nc4)c3)cc1)nn2C1CCOCC1 [Compound 101]
- EC50 [1]: < 100 nM
- Ki [2]: < 100 nM

SMILES: Cc1ncc(COc2cc(F)cc(Oc3ccc(-c4nn(CCCO)c5ncnc(N)c45)cc3)c2)s1 [Compound 104]
- EC50 [1]: < 100 nM
- Ki [2]: < 100 nM

SMILES: Cn1cncc1COc1cc(F)cc(Oc2ccc(-c3nn(CCO)c4ncnc(N)c34)c(F)c2)c1 [Compound 105]
- EC50 [1]: 100 to 1000 nM
- Ki [2]: < 100 nM

SMILES: Cc1ncc(COc2cc(F)cc(Oc3ccc(-c4nn(C(CO)CCl)c5ncnc(N)c45)cc3)c2)s1 (centres unmarked) [Compound 109]
- EC50 [1]: < 100 nM
- Ki [2]: < 100 nM

SMILES: Cc1ncc(COc2cc(F)cc(Oc3ccc(-c4nn(CCO)c5ncnc(N)c45)cc3)c2)cn1 [Compound 110]
- EC50 [1]: 100 to 1000 nM
- Ki [2]: < 100 nM

SMILES: Cc1ccc(COc2cc(F)cc(Oc3ccc(-c4nn(CC(C)(C)O)c5ncnc(N)c45)cc3)c2)cn1 [Compound 111]
- EC50 [1]: 100 to 1000 nM
- Ki [2]: < 100 nM

SMILES: Cn1cncc1COc1cc(F)cc(Oc2ccc(-c3nn(CC(C)(C)O)c4ncnc(N)c34)cc2)c1 [Compound 112]
- EC50 [1]: 100 to 1000 nM
- Ki [2]: < 100 nM

SMILES: Cc1ncc(COc2cc(F)cc(Oc3ccc(-c4nn(C5COC5)c5ncnc(N)c45)cc3)c2)s1 [Compound 113]
- EC50 [1]: < 100 nM
- Ki [2]: < 100 nM

SMILES: Cc1ncc(COc2cc(F)cc(Oc3ccc(-c4nn(CCCO)c5ncnc(N)c45)cc3)c2)cn1 [Compound 114]
- EC50 [1]: 100 to 1000 nM
- Ki [2]: < 100 nM

SMILES: Cc1ncc(COc2cc(F)cc(Oc3ccc(-c4nn(CCO)c5ncnc(N)c45)cc3)c2)n1C [Compound 115]
- EC50 [1]: 100 to 1000 nM
- Ki [2]: < 100 nM

SMILES: Cn1cncc1COc1cc(F)cc(Oc2ccc(-c3nn(CCCO)c4ncnc(N)c34)cc2)c1 [Compound 116]
- EC50 [1]: < 100 nM
- Ki [2]: < 100 nM

SMILES: Cc1ncc(COc2cc(F)cc(Oc3ccc(-c4nn(C5CCOCC5)c5ncnc(N)c45)cc3)c2)[nH]1 [Compound 118]
- EC50 [1]: 100 to 1000 nM
- Ki [2]: < 100 nM

SMILES: Cc1ncc(COc2cc(F)cc(Oc3ccc(-c4nn(CC5(C)COC5)c5ncnc(N)c45)cc3)c2)cn1 [Compound 119]
- EC50 [1]: 100 to 1000 nM
- Ki [2]: < 100 nM

SMILES: Cc1ncc(COc2cc(F)cc(Oc3ccc(-c4nn(C5CCCC5)c5ncnc(N)c45)cc3)c2)n1C [Compound 120]
- EC50 [1]: < 100 nM
- Ki [2]: < 100 nM

SMILES: Cc1ncc(COc2cc(F)cc(Oc3ccc(-c4nn(CC(C)(C)O)c5ncnc(N)c45)cc3)c2)n1C [Compound 121]
- EC50 [1]: 100 to 1000 nM
- Ki [2]: < 100 nM

SMILES: Cc1ncc(COc2cc(F)cc(Oc3ccc(-c4nn(CC(C)(C)O)c5ncnc(N)c45)cc3)c2)cn1 [Compound 122]
- EC50 [1]: 100 to 1000 nM
- Ki [2]: < 100 nM

SMILES: Cc1ncc(COc2cc(F)cc(Oc3ccc(-c4nn(C(C)C)c5ncnc(N)c45)cc3)c2)n1C [Compound 123]
- EC50 [1]: < 100 nM
- Ki [2]: < 100 nM

SMILES: Cc1ncc(COc2cc(F)cc(Oc3ccc(-c4nn(CC5(C)COC5)c5ncnc(N)c45)cc3)c2)n1C [Compound 124]
- EC50 [1]: 100 to 1000 nM
- Ki [2]: < 100 nM

SMILES: Cc1ccc(COc2cc(F)cc(Oc3ccc(-c4nn(CC5(C)COC5)c5ncnc(N)c45)cc3)c2)cn1 [Compound 126]
- EC50 [1]: 100 to 1000 nM
- Ki [2]: < 100 nM

SMILES: Cc1ncc(COc2cc(F)cc(Oc3ccc(-c4nn(C(C)(C)C)c5ncnc(N)c45)cc3)c2)s1 [Compound 127]
- EC50 [1]: < 100 nM
- Ki [2]: < 100 nM

SMILES: CC(C)n1nc(-c2ccc(Oc3cc(F)cc(OCc4ccc(CO)nc4)c3)cc2)c2c(N)ncnc21 [Compound 128]
- EC50 [1]: < 100 nM
- Ki [2]: < 100 nM
